Biological target: T1, human S1P1 receptors (Homo sapiens, UniProt P21453)
T1 construct: host or cells: HEK293
Assay: S1P1R antagonist assay (fluorescent membrane potential dye, cAMP readout)
Assay type: cell-based
Details: HEK293 cells expressing human S1P1 receptors and CNG channel; 500 nM NECA; S1P1R agonist 10 nM; 90 minutes; read-out: EC50 or IC50 value
Source text: The S1P1R antagonist assay is a fluorescent membrane potential dye measurement assay, indicative of intracellular cAMP changes due to G protein-coupled receptor activation. HEK293 cells engineered to express human S1P1 receptors and a cyclic nucleotide-gated (CNG) channel are obtained from BD Biosciences, 80300-250. The CNG channels are activated by elevated levels of cAMP, resulting in ion flux and cell membrane depolarization. Membrane depolarization is detected with a membrane potential dye. Stimulation of the cells with 5′-(N-ethylcarboxamido)adenosine (NECA), an A2b receptor agonist (Sigma, E2387), elicits an A2bR-dependent increase in cAMP.
Subsequent exposure of the cells to a S1P1R agonist suppresses the NECA induced increase in cAMP through S1P1R-specific signaling by inhibiting adenylyl cyclase and the formation of cAMP from ATP. The degree to which a test compound overcomes the S1P1R agonist suppression of the NECA induced increase in cAMP is a measure of S1P1R antagonist activity. Antagonist activity is quantified as the IC50 (i.e., the concentration needed to elicited one-half of the maximum response of the test compound) and/or as the EC50 (i.e., the concentration needed to elicited one-half of the NECA induced stimulation).
Day 1: Freshly thawed cells were plated into 384-well plates (Corning, 3683) at a density of 14,000 cells/well in 20 μL, complete media and incubated for 16 hours at 37° C., 5% CO2 and 99% relative humidity. Complete media included Dulbecco's modified Eagle's medium (Invitrogen, 11965-092), 10% Fetal bovine serum (Hyclone, SH30071.03), 250 μg/mL geneticin (Invitrogen, 10131-027), and 1 μg/mL Puromycin (Fluka, 82595).
Day 2: Membrane potential dye (20 μL, BD Biosciences, 341833) was added to each well and the plates were incubated for 2.5 hours at ambient temperature. Test compounds (20 μL) were added to the wells at various concentrations (≦10 μM, 1 to 3 dilutions) in a NECA base solution and incubated for 90 minutes in the presence of the S1P1R agonist {4-((4-phenyl-5-trifluoromethyl-2-thienyl)methoxy)benzyl}-3-azetidinecarboxylic acid (10 nM). The NECA-base solution contained Dulbecco's phosphate-buffered saline (Invitrogen, 14190-136), 2.5% DMSO (Fluka, 41648), 25 μM Ro 20-1724 (Sigma, B8279), and 500 nM NECA).
Assay plates were read with a PerkinElmer EnVision reader (Excitation 350 nm, Emission 590 nm) at time T=0 minutes, before compound addition and at time T=90 minutes. The signal was calculated as the ratio T90/T0. Data was analyzed in ActivityBase XE and graphs showing log of compound concentration (X-axis) vs. % activity (Y-axis) were generated for IC50 determinations. Percent activity was calculated with the following formula: (Signal−Agonist Control Signal)/(NECA Control Signal−Agonist Control Signal)×100.

T1 sequence (P21453 whole entry): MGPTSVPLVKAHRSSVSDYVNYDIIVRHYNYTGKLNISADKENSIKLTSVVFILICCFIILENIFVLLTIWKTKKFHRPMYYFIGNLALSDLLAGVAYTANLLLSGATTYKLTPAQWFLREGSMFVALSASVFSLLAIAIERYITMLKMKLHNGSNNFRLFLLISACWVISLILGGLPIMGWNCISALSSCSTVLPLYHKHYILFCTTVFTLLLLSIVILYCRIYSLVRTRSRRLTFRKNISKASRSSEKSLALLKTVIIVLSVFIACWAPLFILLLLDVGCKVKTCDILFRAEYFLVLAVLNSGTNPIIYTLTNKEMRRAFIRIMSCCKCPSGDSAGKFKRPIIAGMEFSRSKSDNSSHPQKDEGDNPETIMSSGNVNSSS

IC50 [µM] | Compound
> 1 | CN1CCCC1CC1CCCCN1CC(=O)N[C@@H](COCc1ccccc1)C(=O)Nc1ccc(Oc2ccc(F)cc2)cc1 (stereo in doubt) [Compound 113, (2S)-3-(benzyloxy)-N-(4-(4-fluorophenoxy)phenyl)-2-(2-(2-(((S)-1-methylpyrrolidin-2-yl)methyl)piperidin-1-yl)acetamido)propanamide]
≤ 0.3 | O=C(Nc1ccc(Oc2ccc(F)cc2)cc1)[C@@H]1C[C@@H](Cc2ccc(F)cc2Cl)CN1C(=O)Cn1ccnn1 [Compound 2, (2S,4R)-1-(2-(1H-1,2,3-triazol-1-yl)acetyl)-4-(2-chloro-4-fluorobenzyl)-N-(4-(4-fluorophenoxy)phenyl)pyrrolidine-2-carboxamide]
≤ 0.3 | Cc1ccc(C[C@@H]2C[C@@H](C(=O)Nc3ccc(Oc4ccc(F)cc4)cc3)N(C(=O)Cn3ccnn3)C2)cc1 [Compound 3]
≤ 0.3 | Cc1ccc(C[C@@H]2C[C@@H](C(=O)Nc3ccc(Oc4ccc(F)cc4)cc3)N(C(=O)Cn3cncn3)C2)cc1 [Compound 4]
≤ 0.3 | O=C(Nc1ccc(Oc2ccc(F)cc2)cc1)[C@@H]1C[C@@H](Cc2ccc(F)cc2Cl)CN1C(=O)Cn1nccn1 [Compound 5, (2S,4R)-1-(2-(2H-1,2,3-triazol-2-yl)acetyl)-4-(2-chloro-4-fluorobenzyl)-N-(4-(4-fluorophenoxy)phenyl)pyrrolidine-2-carboxamide]
≤ 0.3 | Cc1cc(F)ccc1C[C@@H]1C[C@@H](C(=O)Nc2ccc(Oc3ccc(F)cc3)cc2)N(C(=O)Cn2ccnn2)C1 [Compound 6, (2S,4R)-1-(2-(1H-1,2,3-triazol-1-yl)acetyl)-4-(4-fluoro-2-methylbenzyl)-N-(4-(4-fluorophenoxy)phenyl)pyrrolidine-2-carboxamide]
≤ 0.3 | Cc1cc(F)ccc1C[C@@H]1C[C@@H](C(=O)Nc2ccc(Oc3ccc(F)cc3)cc2)N(C(=O)Cn2nccn2)C1 [Compound 7, (2S,4R)-1-(2-(2H-1,2,3-triazol-2-yl)acetyl)-4-(4-fluoro-2-methylbenzyl)-N-(4-(4-fluorophenoxy)phenyl)pyrrolidine-2-carboxamide]
≤ 0.3 | Cc1cc(F)ccc1C[C@@H]1C[C@@H](C(=O)Nc2ccc(Oc3ccc(F)cc3)cc2)N(C(=O)Cn2cncn2)C1 [Compound 8, (2S,4R)-1-(2-(1H-1,2,4-triazol-1-yl)acetyl)-4-(4-fluoro-2-methylbenzyl)-N-(4-(4-fluorophenoxy)phenyl)pyrrolidine-2-carboxamide]
≤ 0.3 | O=C(Nc1ccc(Oc2ccc(F)cc2)cc1)[C@@H]1C[C@@H](Cc2ccc(F)cc2Cl)CN1C(=O)Cn1cncn1 [Compound 9, (2S,4R)-1-(2-(1H-1,2,4-triazol-1-yl)acetyl)-4-(2-chloro-4-fluorobenzyl)-N-(4-(4-fluorophenoxy)phenyl)pyrrolidine-2-carboxamide]
≤ 0.3 | O=C(Nc1ccc(Oc2ccc(F)cc2)cc1)[C@@H]1C[C@@H](Cc2ccccc2)CN1C(=O)Cn1ccnn1 [Compound 10, (2S,4R)-1-(2-(1H-1,2,3-triazol-1-yl)acetyl)-4-benzyl-N-(4-(4-fluorophenoxy)phenyl)pyrrolidine-2-carboxamide]
≤ 0.3 | Nc1nc(C(F)(F)F)nn1CC(=O)N1C[C@H](Cc2ccccc2)C[C@H]1C(=O)Nc1ccc(Oc2ccc(F)cc2)cc1 [Compound 11, (2S,4R)-1-(2-(5-amino-3-(trifluoromethyl)-1H-1,2,4-triazol-1-yl)acetyl)-4-benzyl-N-(4-(4-fluorophenoxy)phenyl)pyrrolidine-2-carboxamide]
0.3 to 1 | O=C(Cn1cncn1)N1C[C@H](Cc2ccccc2)C[C@H]1c1nc2cc(Oc3ccc(F)cc3)ccc2[nH]1 [Compound 12, 1-((2S,4R)-4-benzyl-2-(5-(4-fluorophenoxy)-1H-benzo[d]imidazol-2-yl)pyrrolidin-1-yl)-2-(1H-1,2,4-triazol-1-yl)ethanone]
> 1 | O=C(NC(COCc1ccccc1)C(=O)Nc1ccc(Oc2ccccc2)cc1)c1cc(F)ccc1Br (stereo not shown) [Compound 21, N-(3-(benzyloxy)-1-oxo-1-(4-phenoxyphenylamino)propan-2-yl)-2-bromo-5-fluorobenzamide]

More lines, now with the values behind:

Compound | IC50 [µM]
O=C(Cc1cnc[nH]1)N[C@@H](CCCc1ccccc1)C(=O)Nc1ccc(Oc2ccccc2)cc1 [Compound 1, (S)-2-(2-(1H-imidazol-5-yl)acetamido)-5-phenyl-N-(4-phenoxyphenyl)pentanamide] | ≤ 0.3
O=C(NC(COCc1ccccc1)C(=O)Nc1ccc(Oc2ccccc2)cc1)C(=O)c1ccco1 (stereo not shown) [Compound 14, 3-(benzyloxy)-2-(2-(furan-2-yl)-2-oxoacetamido)-N-(4-phenoxyphenyl)propanamide] | > 1
O=C(CCCCCN1C(=O)C=CC1=O)NC(COCc1ccccc1)C(=O)Nc1ccc(Oc2ccccc2)cc1 (stereo not shown) [Compound 15, N-(3-(benzyloxy)-1-oxo-1-(4-phenoxyphenylamino)propan-2-yl)-6-(2,5-dioxo-2,5-dihydro-1H-pyrrol-1-yl)hexanamide] | > 1
CC(=O)Oc1ccc(C(=O)NC(COCc2ccccc2)C(=O)Nc2ccc(Oc3ccccc3)cc2)cc1 (stereo not shown) [Compound 17, 4-(3-(benzyloxy)-1-oxo-1-(4-phenoxyphenylamino)propan-2-ylcarbamoyl)phenyl acetate] | > 1
Cc1cncc(C(=O)NC(COCc2ccccc2)C(=O)Nc2ccc(Oc3ccccc3)cc2)c1 (stereo not shown) [Compound 18, N-(3-(benzyloxy)-1-oxo-1-(4-phenoxyphenylamino)propan-2-yl)-5-methylnicotinamide] | > 1
CS(=O)(=O)CC(=O)NC(COCc1ccccc1)C(=O)Nc1ccc(Oc2ccccc2)cc1 (stereo not shown) [Compound 19, 3-(benzyloxy)-2-(2-(methylsulfonyl)acetamido)-N-(4-phenoxyphenyl)propanamide] | > 1
O=C(NC(COCc1ccccc1)C(=O)Nc1ccc(Oc2ccccc2)cc1)c1ccc2[nH]ccc2c1 (stereo not shown) [Compound 20, N-(3-(benzyloxy)-1-oxo-1-(4-phenoxyphenylamino)propan-2-yl)-1H-indole-5-carboxamide] | > 1
O=C(CC(F)(F)F)NC(COCc1ccccc1)C(=O)Nc1ccc(Oc2ccccc2)cc1 (stereo not shown) [Compound 22, N-(3-(benzyloxy)-1-oxo-1-(4-phenoxyphenylamino)propan-2-yl)-3,3,3-trifluoropropanamide] | 0.3 to 1
O=C(Nc1ccc(Oc2ccccc2)cc1)C(COCc1ccccc1)NC(=O)[C@H]1CCCO1 (stereo partly drawn) [Compound 23, (2R)—N-(3-(benzyloxy)-1-oxo-1-(4-phenoxyphenylamino)propan-2-yl)tetrahydrofuran-2-carboxamide] | > 1
O=C(Nc1ccc(Oc2ccccc2)cc1)C(COCc1ccccc1)NC(=O)[C@H](O)c1ccccc1Cl (stereo partly drawn) [Compound 24, 3-(benzyloxy)-2-((R)-2-(2-chlorophenyl)-2-hydroxyacetamido)-N-(4-phenoxyphenyl)propanamide] | > 1
CC(=O)O[C@@H](C)C(=O)NC(COCc1ccccc1)C(=O)Nc1ccc(Oc2ccccc2)cc1 (stereo partly drawn) [Compound 25, (2S)-1-(3-(benzyloxy)-1-oxo-1-(4-phenoxyphenylamino)propan-2-ylamino)-1-oxopropan-2-yl acetate] | > 1
O=C(COc1ccccc1O)NC(COCc1ccccc1)C(=O)Nc1ccc(Oc2ccccc2)cc1 (stereo not shown) [Compound 26, 3-(benzyloxy)-2-(2-(2-hydroxyphenoxy)acetamido)-N-(4-phenoxyphenyl)propanamide] | > 1
O=C(Nc1ccc(Oc2ccccc2)cc1)C(COCc1ccccc1)NC(=O)[C@H](O)Cc1ccccc1 (stereo partly drawn) [Compound 27, 3-(benzyloxy)-2-((R)-2-hydroxy-3-phenylpropanamido)-N-(4-phenoxyphenyl)propanamide] | > 1
CSc1ncccc1C(=O)NC(COCc1ccccc1)C(=O)Nc1ccc(Oc2ccccc2)cc1 (stereo not shown) [Compound 28, N-(3-(benzyloxy)-1-oxo-1-(4-phenoxyphenylamino)propan-2-yl)-2-(methylthio)nicotinamide] | > 1
O=C(NC(COCc1ccccc1)C(=O)Nc1ccc(Oc2ccccc2)cc1)C1CC(=O)N(Cc2ccc(Cl)cc2)C1 (stereo not shown) [Compound 29, N-(3-(benzyloxy)-1-oxo-1-(4-phenoxyphenylamino)propan-2-yl)-1-(4-chlorobenzyl)-5-oxopyrrolidine-3-carboxamide] | > 1
